Measurements from patent US20070270362A1, “Methods and compositions for prevention or treatment of inflammatory-related diseases and disorders” (The University of Washington, priority 2006, published 2007).
Entries after “also recorded” stand apart in the source; their conditions may differ.

Key:
BAEC or HUVEC monolayer = test: Lymphocyte adhesion to endothelial cells treated with retracting or apoptosis-inducing agents; assay type: cell-based; conditions: for lymphocyte adhesion to EC treated with the agent: BAEC or HUVEC
Procedure: Cells. Jurkat cells and Ramos B cells were obtained from the American Type Culture Collection (ATCC) and were cultured in RPMI (Mediatech, Herndon Va.) supplemented with glutaMAX-1 (Invitrogen, Carlsbad Calif.), 1 mM sodium pyruvate (BioWhittaker, Walkersville Md.), nonessential amino acids (NEAA) (BioWhittaker) and 10% fetal bovine serum (FBS) (Hyclone, Logan Utah). Peripheral blood was obtained from healthy donors with informed consent according to protocols approved by the Human Subjects Review Committee of the University of Washington. PBMC were isolated by Ficoll-Hypaque (Pharmacia, Piscataway, N.J.) gradient centrifugation and washed with PBS. […] HUVEC were cultured on surfaces coated with 2% gelatin (Sigma). BAEC were a gift of Helene Sage (Hope Heart Institute, Seattle Wash.) and were grown in DMEM (Mediatech) supplemented with glutaMAX-1, sodium pyruvate and 8% FBS. […] Adhesion assays. Lymphocytes were labeled with 2.5 mM calcein-AM (Molecular Probes, Eugene, Oreg.) at room temperature for 20-40 min, washed, and resuspended in HBSS with calcium and magnesium (Mediatech) supplemented with 0.1% BSAnd 4 mM HEPES. Lymphocytes were incubated with inhibitors or function-blocking antibodies at 37° C. for 15-30 min and tested for LIA or phorbol ester-stimulated adhesion to EC or to EC matrix for 15-30 min at 37° C. Adhesion was measured by a Cytofluor Series 4000 fluorescence plate reader (PerSeptive Biosystems, Framingham, Mass.). Plates were scanned before and after washing for total and adherent cells, respectively. Statistical significance was deteremined by Student's t-Test. In some cases, EC were labeled with Cell Tracker Orange (Molecular Probes) per manufacturers instructions prior to adhesion. Cells were fixed after adhesion assays and adherent cells were directly visualized by fluorescent microscopy.

Jurkat cells = conditions: 1 μM treatment of Jurkat cells; previously reported; cited from earlier work
[1] = system: Jurkat cells or PBMC adhering to cytochalasin D-retracted BAEC or BAEC-derived matrix; test: Ligand-induced adhesion (LIA) of unstimulated lymphocytes to retracted EC or EC matrix; assay type: cell-based, human; conditions: for ligand-induced cell adhesion: same dose (1 μM) treatment of Jurkat cells; for adhesion to retracted BAEC or EC matrix (LIA): Jurkat or PBMC treated with 20 μM inhibitor for 30 min, adhesion 30 min
Procedure: Cells. Jurkat cells and Ramos B cells were obtained from the American Type Culture Collection (ATCC) and were cultured in RPMI (Mediatech, Herndon Va.) supplemented with glutaMAX-1 (Invitrogen, Carlsbad Calif.), 1 mM sodium pyruvate (BioWhittaker, Walkersville Md.), nonessential amino acids (NEAA) (BioWhittaker) and 10% fetal bovine serum (FBS) (Hyclone, Logan Utah). Peripheral blood was obtained from healthy donors with informed consent according to protocols approved by the Human Subjects Review Committee of the University of Washington. PBMC were isolated by Ficoll-Hypaque (Pharmacia, Piscataway, N.J.) gradient centrifugation and washed with PBS. HUVEC were isolated and cultured as previously described (Schwartz et al., J Immunol 162: 4842-8, 1999) and were grown in RPMI 1640 with supplemented with 2 mM glutamine, sodium pyruvate, NEAA, 10 mM HEPES, 100 U/ml penicillin, 100 U/ml streptomycin, 250 ng/ml fungizone (BioWhittaker), […] heparin (Sigma, St. Louis, Mo.), bovine hypothalamic extract (gift of E. Raines, University of Washington, Seattle, Wash.), and 10% bovine calf serum supplemented with iron (HyClone). HUVEC were cultured on surfaces coated with 2% gelatin (Sigma). BAEC were a gift of Helene Sage (Hope Heart Institute, Seattle Wash.) and were grown in DMEM (Mediatech) supplemented with glutaMAX-1, sodium pyruvate and 8% FBS. EC matrix was prepared by lysis of a confluent layer of EC with 20 mM NH4OH at 37° C. for 5 min (Kato and Gospodarowicz, J Cell Biol 100: 486-95, 1985) and blocked briefly with growth medium. Adhesion assays. Lymphocytes were labeled with 2.5 mM calcein-AM (Molecular Probes, Eugene, Oreg.) at room temperature for 20-40 min, washed, and resuspended in HBSS with calcium and magnesium (Mediatech) supplemented with 0.1% BSAnd 4 mM HEPES. Lymphocytes were incubated with inhibitors or function-blocking antibodies at 37° C. for 15-30 min and tested for LIA or phorbol ester-stimulated adhesion to EC or to EC matrix for 15-30 min at 37° C. Adhesion was measured by a Cytofluor Series 4000 fluorescence plate reader (PerSeptive Biosystems, Framingham, Mass.). Plates were scanned before and after washing for total and adherent cells, respectively. Statistical significance was deteremined by Student's t-Test. In some cases, EC were labeled with Cell Tracker Orange (Molecular Probes) per manufacturers instructions prior to adhesion. Cells were fixed after adhesion assays and adherent cells were directly visualized by fluorescent microscopy. Underlying fibronectin fibrils were visualized with polyclonal anti-bovine fibronectin antibody (Accurate), followed by Alexa-568 conjugated secondary antibody (Molecular Probes).

[2] = system: retinoblastoma protein (Rb), Cdk2 specific site (T821) and Cdk4 specific site (249/252); test: Western blot of Rb phosphorylation with phospho-specific antibodies; assay type: cell-based; conditions: Jurkat cells, 20 μM, 30 min
Procedure: Western Blot Analysis. Equal numbers of Jurkat cells (1×10^6) were lysed in buffer containing 50 mM Hepes, pH 7.5, 10 mM NaCl, 5 mM MgCl2, 1 mM EGTA, 1 μg/ml leupeptin, 1 μg/ml aprotinin, 1% triton, and 10% glycerol and Complete Mini Protease Inhibitor Cocktail (Roche). Equal amounts of protein were separated by SDS-PAGE, transferred to Immobilon and blocked for 1 hour. Blots were incubated with primary antibody for 1 hour, followed by peroxidase-conjugated secondary antibody for 1 hour and then developed with Enhanced Chemiluminescence (ECL, Amersham). […] Anti-Cdk2 and anti-Cdk4 antibodies were obtained from eBioscience.

[3] = system: PBMC migrating through confluent HUVEC monolayer; test: Transendothelial migration assay; assay type: cell-based, human
Procedure: Flow cytometry. Integrin subunit expression levels were analyzed by a FACScan (Becton Dickinson) instrument. Analyzed cells were incubated in integrin antibodies for 30 min, followed by incubation with fluorescein-labeled secondary antibodies for 30 mins. Migration Assays. Calcein-labeled PBMC were treated with purvanalol for 15 min, then added to a confluent monolayer of HUVEC grown on collagen-coated transwell (3 micron pore size, Costar-Corning). PBMC were allowed to migrate for 4 hours at 37° C. Number of migrated cells in bottom chamber was counted. […] In addition, in some experiments, equal numbers of PBMC were allowed to adhere to HUVEC, then treated with purvanaol, to verify that differences in migration were not simply due to differences in initial adhesion. All assays were performed in triplicate. Integrity of the endothelial monolayer was verified by measurements of transendothelial resistance before and after migration assay.

For `COc1cc2c(c(OC)c1OC)-c1ccc(OC)c(=O)cc1[C@@H](NC(C)=O)CC2` [colchicine], the endothelial cell retraction (BAEC or HUVEC monolayer) was “failed to induce retraction” and the “lymphocyte adhesion to EC treated with the agent” value (“lymphocyte adhesion to EC treated” for short) (BAEC or HUVEC monolayer) was “failed to produce comparable lymphocyte adhesion”.
With `COC(=O)Nc1nc2cc(C(=O)c3cccs3)ccc2[nH]1` [nocadozole] the endothelial cell retraction (BAEC or HUVEC monolayer) was “failed to induce retraction” and the “lymphocyte adhesion to EC treated” value (BAEC or HUVEC monolayer) was “failed to produce comparable lymphocyte adhesion”.
With `CC(=O)O[C@H]1C(=O)[C@@]2(C)[C@H]([C@H](OC(=O)c3ccccc3)[C@]3(O)C[C@H](OC(=O)[C@H](O)[C@@H](NC(=O)c4ccccc4)c4ccccc4)C(C)=C1C3(C)C)[C@]1(OC(C)=O)CO[C@@H]1C[C@@H]2O` [paclitaxel] the endothelial cell retraction (BAEC or HUVEC monolayer) was “failed to induce retraction” and the “lymphocyte adhesion to EC treated” value (BAEC or HUVEC monolayer) was “failed to produce comparable lymphocyte adhesion”.
For `C=C1[C@@H](C)[C@H]2[C@H](Cc3ccccc3)NC(=O)[C@]23[C@H](OC(C)=O)/C=C/[C@@](C)(O)C(=O)[C@@H](C)C/C=C/[C@H]3[C@@H]1O` [cytochalasin D], the “phorbol ester-stimulated cell adhesion” value (Jurkat cells) is given as “Inhibited by cytochalasin D”, the ligand-induced cell adhesion [1] is given as “Not affected by cytochalasin D” and the ligand-induced cell adhesion ([1]; listed as cytochalasin) is given as “no affect”. The endothelial cell retraction (BAEC or HUVEC monolayer) was “caused endothelial cell retraction” and the “PBMC adhesion to treated EC versus untreated EC” value (BAEC or HUVEC monolayer; PBMC) was 5-6 fold.
With `CN[C@@H]1C[C@H]2O[C@@](C)([C@@H]1OC)n1c3ccccc3c3c4c(c5c6ccccc6n2c5c31)C(=O)NC4` [staurosporine] the endothelial cell retraction (BAEC or HUVEC monolayer) was “caused endothelial cell retraction”.
In the case of `CC[C@]1(O)C[C@@H]2CN(CCc3c([nH]c4ccccc34)[C@@](C(=O)OC)(c3cc4c(cc3OC)N(C)[C@H]3[C@@](O)(C(=O)OC)[C@H](OC(C)=O)[C@]5(CC)C=CCN6CC[C@]43[C@@H]65)C2)C1` [vinblastine], the endothelial cell retraction (BAEC or HUVEC monolayer) is reported as “failed to induce retraction” and the “lymphocyte adhesion to EC treated” value (BAEC or HUVEC monolayer) is reported as “failed to produce comparable lymphocyte adhesion”.
In the case of `CC(C)[C@H](CO)Nc1nc(Nc2cccc(Cl)c2)c2ncn(C(C)C)c2n1` [purvalanol A], the “adhesion to retracted BAEC or EC matrix (LIA)” value (“adhesion … (LIA)” below) [1] is reported as “block ligand-induced adhesion; also recorded: significantly reduced”, the “phosphorylation of Rb at Cdk2 site (T821) and Cdk4 site (249/252)” value [2] is reported as “block Rb phosphorylation” and the “initial adhesion of PBMC to confluent endothelial cells” value [3] is reported as “did not affect initial adhesion”. The “PBMC migration through confluent endothelial monolayer” value ([3]; HUVEC on transwell) was “inhibited”.
With `O=c1c(-c2ccc(O)cc2)coc2cc(O)cc(O)c12` [genistein] the “inhibition of LIA by inhibitors of other pathways” value (from here on “inhibition of LIA”) [1] was “did not inhibit LIA”.
With latrunculin the endothelial cell retraction (BAEC or HUVEC monolayer) was “caused endothelial cell retraction”.
In the case of `CC(C)[C@H](CO)Nc1nc(Nc2cc(N)cc(Cl)c2)c2ncn(C(C)C)c2n1` [aminopurvalanol A], the “adhesion … (LIA)” value [1] is reported as “block ligand-induced adhesion; also recorded: significantly reduced”.
For `C[C@@H](N)[C@H]1CC[C@H](C(=O)Nc2ccncc2)CC1` [Y-7632], the “inhibition of LIA” value [1] was “did not inhibit LIA”.
In the case of `CC[C@H](CO)Nc1nc(NCc2ccccc2)c2ncn(C(C)C)c2n1` [roscovitine], the “adhesion … (LIA)” value [1] is reported as “block ligand-induced adhesion; also recorded: significantly reduced”.
In the case of `COc1cccc(-c2cc(=O)c3ccccc3o2)c1N` [PD98059], the “inhibition of LIA” value [1] is reported as “did not inhibit LIA”.
For `O=C(O)CN(CCN(CC(=O)O)CC(=O)O)CC(=O)O` [EDTA], the endothelial cell retraction (BAEC or HUVEC monolayer) was “caused endothelial cell retraction”.
With Thrombin the endothelial cell retraction (BAEC or HUVEC monolayer) was “caused endothelial cell retraction” and the “increase of Jurkat cell adhesion to treated BAEC” value (BAEC or HUVEC monolayer; Jurkat cells, BAEC) was 4-5 fold.
